Assay results published in patent publication US20220364056A1, “SHORT-CHAIN FATTY ACID PENTANOATE AS ENHANCER FOR CELLULAR THERAPY AND ANTI-TUMOR THERAPY” (PHILIPPS-UNIVERSITÄT MARBURG, priority 2019, published 2022).

What was measured:
B16OVA melanoma cells = experiment: adoptive transfer of pretreated OT-I CTLs into mice bearing s.c. B16OVA tumors; type: in vivo
HDAC = experiment: fluorogenic HDAC assay on CTL-derived cell lysates; type: biochemical, murine; conditions: unstimulated CTLs set to 1.0
Method: (A) Experimental design for the treatment of CTLs with the water-soluble fraction of intestinal content derived from SPF or GF mice. (B and C) Frequencies of IFN-γ- and TNF-α-producing CTLs treated with the extract from luminal content derived from indicated organs. Representative results of two experiments are shown (n=3). (D) ELISA was performed to measure the secretion of TNF-α by CLTs treated as shown in (A). (E) Quantitative measurement of total SCFA amounts in fecal samples of SPF and GF mice (n=5). (F and G) The percentage of IFN-γ^+ TNF-α^+ CTLs treated with the indicated SCFAs for three days (n=3, one of three independent experiments is shown). (H) The secretion of TNF-α from CTLs treated with SCFAs was determined by ELISA (n=3, one of two independent experiments is shown). (I) The fluorogenic HDAC assay was applied to measure the HDAC inhibitory activity of SCFAs on CTLs. The value for unstimulated CTLs was arbitrarily set to 1.0. Four independent experiments were performed. (J and K) Representative contour plots (J) and bar graphs (K) showing the frequency of IFN-γ+ and TNF-α+ cells after pentanoate (2 mM) or VPA (0.5 mM) administration. Three similar experiments were performed. (L and M) The frequency of Eomes- and T-bet-expressing CTLs treated with pentanoate (2 mM) or VPA (0.5 mM) for three days was analyzed by flow cytometry (n=4). […]

PancOVA cells = experiment: adoptive transfer of pretreated OT-I CTLs into mice bearing s.c. PancOVA tumors; type: in vivo
Source text: We tested this hypothesis in two different subcutaneous (s.c.) tumor models. We injected s.c. B16OVA melanoma cells into CD45.2^+ mice and transferred either control or pentanoate-treated CD45.1^+ OT-I CTLs into recipient animals on day 5 after tumor injection. […] On day 10 after adoptive transfer of CTLs, we detected a higher number of pentanoate-treated cells expressing more effector cytokines TNF-α and IFN-γ in comparison to control OT-I CTLs in tumors, draining LNs and spleen (FIG. 2, E-G). Furthermore, the anti-tumor effects mediated by treatment of CTLs with pentanoate were tested in aggressive pancreatic tumors expressing OVA protein (OVA-expressing Panc02 cells, PancOVA). To this end, 1.5×10^6 PancOVA cells were injected s.c. into CD45.2^+ mice. […] One area of application is CAR therapy.
(A) Experimental design for the role of SCFAs in promoting anti-tumor immunity. (B-D) After three days of pre-treatment with pentanoate, CD45.1^+ OVA-specific CTLs were transferred intraperitoneally (i.p.) into CD45.2^+ mice bearing 5-days old B16OVA tumors. Tumor volume and tumor mass were analyzed (n=3 mice per group, one of three independent experiments is shown). […]
Tumor weight was determined on day 23 post tumor inoculation. […]

[1] = tested on: CD8+ cytotoxic T lymphocytes (CTLs); experiment: murine CTLs cultivated under suboptimal conditions with SCFAs; cytokines and effector molecules by flow cytometry and ELISA; type: cell-based
Source text: It is known that the glycolytic metabolic pathway promotes IFN-γ expression and T cell effector function. […] We next investigated if acetylation of H4 was increased at CTL-characteristic loci (Ifnγ, Tbx21 and Eomes) after treatment of CTLs with pentanoate. […] Due to the high level of heterogeneity and plasticity within T lymphocytes, we next investigated possible effects of pentanoate on other CD8^+ T cell subtypes. […] To gain further insight into possible therapeutic strategies, we next investigated the impact of pentanoate on human CD8^+ T lymphocytes.
(A) Experimental design for the treatment of CTLs with the water-soluble fraction of intestinal content derived from SPF or GF mice. (B and C) Frequencies of IFN-γ- and TNF-α-producing CTLs treated with the extract from luminal content derived from indicated organs. Representative results of two experiments are shown (n=3). (D) ELISA was performed to measure the secretion of TNF-α by CLTs treated as shown in (A). (E) Quantitative measurement of total SCFA amounts in fecal samples of SPF and GF mice (n=5). (F and G) The percentage of IFN-γ^+ TNF-α^+ CTLs treated with the indicated SCFAs for three days (n=3, one of three independent experiments is shown). (H) The secretion of TNF-α from CTLs treated with SCFAs was determined by ELISA (n=3, one of two independent experiments is shown). (I) The fluorogenic HDAC assay was applied to measure the HDAC inhibitory activity of SCFAs on CTLs. The value for unstimulated CTLs was arbitrarily set to 1.0. Four independent experiments were performed. (J and K) Representative contour plots (J) and bar graphs (K) showing the frequency of IFN-γ+ and TNF-α+ cells after pentanoate (2 mM) or VPA (0.5 mM) administration. Three similar experiments were performed. (L and M) The frequency of Eomes- and T-bet-expressing CTLs treated with pentanoate (2 mM) or VPA (0.5 mM) for three days was analyzed by flow cytometry (n=4). (N) ChIP assay showing the acetylation of histone H4 at the promoter regions of Ifnγ and Eomes genes after 24 hours of treatment of CTLs with pentanoate. Data are from pooled chromatin of three mice.
Representative histogram plots (A) and bar graphs (B) are showing the frequency of Annexin V^+ cells. Three similar experiments were performed. (C) Representative effector molecule staining of CD8^+ T cells polarized under suboptimal CTL-inducing conditions, treated with pentanoate or TSA (10 nM Sigma-Aldrich) in presence of 2-DG (1 mM, Sigma-Aldrich) or rapamycin (100 nM, Sigma-Aldrich) for 3 days. Three independent experiments were performed. (D) Western blot analysis of H3Ac and H4Ac in CD8^+ T cells treated with SCFAs for 3 days. (E) Pan-H4Ac ChIP qPCR analysis for Tbx21 promoter accessibility in pentanoate-treated CTLs. Data are from pooled chromatin of three mice. (F and G) CD8^+ T cells isolated from WT and Tbx21^−/− mice were polarized under suboptimal CTL-inducing conditions in presence of increasing pentanoate concentrations. Representative contour plots (F) and bar graphs (G) show the frequency of IFN-γ+ and IL-17A^+ cells. Two similar experiments were performed. […]

CTLs = experiment: extracellular acidification rate (ECAR) of CTLs; type: cell-based, murine; conditions: 2.5 mM pentanoate, three days
Method: (A and B) CTLs were cultured in medium containing 1.0% FCS and treated with pentanoate (2.5 mM) for three days. Representative histogram plots and bar graphs indicate the phoshorylated levels of mTOR (A) and S6 ribosomal protein (B), respectively (n=3 pooled from three independent experiments). (C and D) Human CTLs were cultured in medium containing 1.0% serum and treated with indicated HDACi for three days. Representative histogram plots and bar graphs indicate the phoshorylated levels of mTOR (C) and S6 ribosomal protein (D), respectively (data points represent four individual healthy donors) (E) Measurement of extracellular acidification rate (ECAR) for in vitro generated murine CTLs cultured with or without 2.5 mM pentanoate for three days. ECAR was measured under basal conditions and in response to glucose (10 mM), oligomycin (2 μM), and 2-deoxy-glucose (2-DG, 100 mM). One of three independent experiments is shown.

## CCCCC(=O)O [pentanoate]
B16OVA melanoma cells; OT-I CTLs pretreated three days with pentanoate, transferred day 5 after tumor injection
  tumor volume and weight: decreased tumor volume and weight
B16OVA melanoma cells; day 10 after adoptive transfer, vs control OT-I CTLs
  number of transferred cells expressing TNF-α and IFN-γ in tumors, draining LNs and spleen: higher number
HDAC
  HDAC activity of CTL-derived cell lysates: strong reduction of HDAC activity
PancOVA cells; 7.5×10^5 pentanoate-treated OT-I CD8+ T lymphocytes
  growth of PancOVA cells in recipient animals: completely eliminate the growth
PancOVA cells; day 23 after tumor inoculation
  persistence of transferred CTLs within draining LNs and spleen: persistence of pentanoate-treated CTLs with high IFN-γ production
[1]; CTLs, suboptimal conditions, SCFAs for three days
  frequencies of TNF-α+ IFN-γ+ cells: substantial increase
[1]; ELISA, CTLs treated with SCFAs
  secretion of TNF-α by CTLs: substantial increase
[1]; ELISA, indicated time points
  secretion of IL-2 by CTLs: robustly produced IL-2 in a prolonged manner
[1]; Tbx21-/- vs WT, increasing pentanoate concentrations
  production of IFN-γ by T-bet-deficient CTLs: partially defective production
[1]; pentanoate 2 mM or VPA 0.5 mM
  expression of TNF-α and IFN-γ in CTLs: potently enhanced
[1]; pentanoate 2 mM or VPA 0.5 mM, three days
  CTL-related transcription factors T-bet and Eomes in CD8+ T cells: strongly induced
[1]; rapamycin 100 nM co-treatment
  reversal of the effect on granzyme B+IFN-γ+ cells by rapamycin: could not be reversed
[1]; three days
  percentage of CD25+IFN-γ+ cells in in vitro generated CTLs: strongly enhanced
[1]; vs control CTLs, TSA 10 nM, 3 days
  percentages of granzyme B+IFN-γ+ CD8+ T cells: substantially enhanced
CTLs
  extracellular acidification rate (ECAR): increased
